Test results from patent publication US20240307415A1, “STEROID COMPOUND, AND PHARMACEUTICAL COMPOSITION THEREOF AND USE THEREOF” (JIANGSU SIMCERE PHARMACEUTICAL CO., LTD., priority 2021, published 2024).
Where two headings read alike, the source gives them in different places.

Experiments:
CHS mouse model = assay: Efficacy test in CHS mouse model (FITC sensitization, right ear thickness); format: in vivo, C57BL/6N mice; conditions: 3 μg/mouse
Description: Construction of CHS mouse model: 6- to 8-week-old female C57BL/6N mice (Beijing Vital River Laboratory Animal Technology Co., Ltd.) were selected, and all mice were shaved off abdominal hair using a small animal hair clipper. 400 μL of the sensitizer was pipetted with a micropipette and applied evenly to the abdomen of the mice for epidermal sensitization. After application, the mice were held for 3-5 s and the solvent was allowed to evaporate from the skin as clean as possible. The specific preparation method for the sensitizer was: 0.5 g of FITC (fluorescein isothiocyanate; sigma-Aldrich) powder was weighed and fully dissolved in a solvent of 50 mL of acetone (SinoPharm reagent) and 50 mL of DBP (dibutyl phthalate; sigma-Aldrich) in equal proportion to give the sensitizer with the FITC content of 0.5%. On the 6th day after sensitization, the thickness of the right ear of the mice was measured with a dial thickness gauge as a baseline value, then a freshly prepared sensitizer was pipetted with a micropipette and applied evenly inside and outside of the right ear of the mice respectively for epidermal stimulation, and 10 μL of the sensitizer was applied on each side. 24 h after stimulation, the thickness of the right ear of the mice was measured again with a dial thickness gauge to obtain the thickness change of the right ear of the mice, A thickness of right ear=(thickness of right ear 24 h after stimulation)−(baseline value of thickness of right ear).
Therapeutic regimen for CHS model mouse: mice were divided into a blank group, a negative control group, a positive control group, and an experimental group. […] The drug was administered by one-time intraperitoneal injection 1 h before the right ear epidermal stimulation.

K562-GRE reporter gene = K562-GRE reporter gene activity; format: cell-based; conditions: read-out: K562-GRE Reporter EC50
Description: To generate the parental K562-GRE cell line, K562 cells were seeded at 5×10^5 cells/well onto a 6-well plate (brand: Costar, Cat. No: 3516) containing 2 mL of complete medium (RPM1640, 10% FBS, penicillin-streptomycin) and cultured at 37° C. with 5% CO2 for 24 h. The next day, 3 μg of pNL2.2[NLucP/MMTV/Hygro-NANO] (Promega) and 3 μL of PLUS reagent (brand: Invitrogen, Cat. No: 11514-015) were diluted in 150 μL of Opti-MEM (brand: Gibco, Cat. No: 11058021) and incubated at room temperature for 5 min. The pNL2.2[NLucP/MMTV/Hygro-NANO] vector contains MMTV LTR (mouse mammary tumor virus long terminal repeat), which drives transcription of the luciferase reporter gene NanoLuc in response to activation of several nuclear receptors (e.g. glucocorticoid receptor and androgen receptor). After incubation, the diluted DNA solution was mixed with Lipofectamine LTX solution (brand: Invitrogen, Cat. No: 15338-100) (6 μL of Lipofectamine LTX+144 μL of Opti-MEM) in a 1:1 ratio, pre-incubated, and incubated at room temperature for 15 min to form a DNA-Lipofectamine LTX complex. After incubation, 300 μL of the DNA-Lipofectamine complex was added directly to the cell wells. The K562 cells were transfected at 37° C. with 5% CO2 for 24 h. After transfection, the cells were washed with 3 mL of PBS and selectively grown for two weeks with complete growth medium containing 125 μg/mL hygromycin B (brand: Invitrogen, Cat. No: 10687010). “K562-GRE (pNL2.2[NLucP/MMTV/Hygro-NANO])” cells were generated.
After mixing, the cells were cultured in an incubator at 37° C. for 24 h. After 24 h of incubation, an equal volume of 100 μL of Nano-Glo luciferase assay system (brand: Promega, Cat. No: N1120) was added to the cells, the mixture was reacted in a shaker at […] for 10 min, and the chemiluminescence values were detected using the PHERAstar instrument. The antibody binding curves were plotted using the logarithmic value of the antibody concentration as the abscissa and the corresponding chemiluminescence reading as the ordinate, and the EC50 value was calculated by four-parameter fitting (GraphPad Prism9).

[1] = target: Glucocorticoid Receptor GR (Homo sapiens (Human), UniProt P04150); assay: Binding activity to glucocorticoid receptor GR (Polarscreen fluorescence polarization kit); conditions: GR full length, 2 h
Description: The binding activity of the compound to GR was determined using the Polarscreen Glucocorticoid Receptor Assay Kit, Red (brand: Thermo, Cat. No: A15898). […] The highest concentration was 100 μM, 8 concentrations in total. […] With the log value of the final concentration of the compound as the X axis and the mP value as the Y axis, data was input into the processing software Graphpad Prism 9, and the EC50 value was calculated by four-parameter fitting

[2] = K562-GRE cells, 24 h incubation, NanoLuc luciferase

Chain of Glucocorticoid Receptor GR (P04150 whole entry): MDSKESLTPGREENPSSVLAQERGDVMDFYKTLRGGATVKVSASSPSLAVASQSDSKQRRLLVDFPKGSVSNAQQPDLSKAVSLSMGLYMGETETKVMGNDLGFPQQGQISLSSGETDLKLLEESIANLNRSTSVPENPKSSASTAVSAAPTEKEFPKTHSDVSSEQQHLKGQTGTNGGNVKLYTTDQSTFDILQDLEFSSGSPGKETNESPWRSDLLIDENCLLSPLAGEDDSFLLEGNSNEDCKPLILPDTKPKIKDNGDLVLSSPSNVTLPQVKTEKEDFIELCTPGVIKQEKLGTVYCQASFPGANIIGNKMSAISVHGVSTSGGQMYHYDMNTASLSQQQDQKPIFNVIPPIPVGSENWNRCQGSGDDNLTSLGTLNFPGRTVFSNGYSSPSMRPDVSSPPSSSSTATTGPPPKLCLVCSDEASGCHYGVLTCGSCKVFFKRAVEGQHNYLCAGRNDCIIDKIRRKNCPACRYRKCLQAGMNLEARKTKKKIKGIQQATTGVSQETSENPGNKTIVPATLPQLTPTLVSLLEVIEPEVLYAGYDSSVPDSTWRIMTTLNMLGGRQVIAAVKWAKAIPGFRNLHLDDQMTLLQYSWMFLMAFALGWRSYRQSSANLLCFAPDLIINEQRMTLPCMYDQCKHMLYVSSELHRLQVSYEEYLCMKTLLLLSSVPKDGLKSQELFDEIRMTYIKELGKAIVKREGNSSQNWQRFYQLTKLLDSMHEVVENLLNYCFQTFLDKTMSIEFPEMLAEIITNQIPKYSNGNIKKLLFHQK

Structure (SMILES) | EC50 (K562-GRE reporter gene; 24 h) [nM] | EC50 (K562-GRE reporter gene; [2]) [nM] | further results
C[C@]12C=CC(=O)C=C1CC[C@@H]1[C@@H]2[C@@H](O)C[C@@]2(C)[C@H]1C[C@H]1O[C@@H](c3ccc(Cc4ccc(N)c5c4CCO5)cc3)O[C@]12C(=O)CO [Compound 001, (6aR,6bS,7S,8aS,8bS,10R,11aR,12aS,12bS)-10-(4-((7-amino-2,3-dihydrobenzofuran-4-yl)methyl)phenyl)-7-hydroxy-8b-(2-hydroxyacetyl)-6a,8a-dimethyl-6a,6b,7,8,8a,8b,11a,12,12a,12b-decahydro-1H-naphtho[2′,1′:4,5]indeno[1,2-d][1,3]dioxolan-4(2H)-one] | 3.5 |  | thickness of the right ear in CHS mice compared to the negative control group (CHS mouse model; one-time intraperitoneal injection 1 h before right ear stimulation, measured 24 h after stimulation): significant decrease; efficacy compared with positive reference compound a at the same dose (CHS mouse model; one-time intraperitoneal injection, CHS mice, right ear thickness): superior in efficacy to the positive reference compound a; EC50 [1]: 13 nM
C[C@]12C=CC(=O)C=C1CC[C@@H]1[C@@H]2[C@@H](O)C[C@@]2(C)[C@H]1C[C@H]1O[C@@H](c3ccc(Cc4ccc5nc[nH]c5c4)cc3)O[C@]12C(=O)CO [Compound 002, (6aR,6bS,7S,8aS,8bS,10R,11aR,12aS,12bS)-10-(4-((1H-benzo[d]imidazol-6-yl)methyl)phenyl)-7-hydroxy-8b-(2-hydroxyacetyl)-6a,8a-dimethyl-6a,6b,7,8,8a,8b,11a,12,12a,12b-decahydro-1H-naphtho[2′,1′:4,5]indeno[1,2-d][1,3]dioxolan-4(2H)-one] |  | 9 | 
C[C@]12C=CC(=O)C=C1CC[C@@H]1[C@@H]2[C@@H](O)C[C@@]2(C)[C@H]1C[C@H]1O[C@@H](c3ccc(Cc4ccc5cc[nH]c5c4)cc3)O[C@]12C(=O)CO [Compound 003, (6aR,6bS,7S,8aS,8bS,10R,11aR,12aS,12bS)-10-(4-((1H-indol-6-yl)methyl)phenyl)-7-hydroxy-8b-(2-hydroxyacetyl)-6a,8a-dimethyl-6a,6b,7,8,8a,8b,11a,12,12a,12b-decahydro-1H-naphtho[2′,1′:4,5]indeno[1,2-d][1,3]dioxolan-4(2H)-one] |  | 3.8 | 
C[C@]12C=CC(=O)C=C1CC[C@@H]1[C@@H]2[C@@H](O)C[C@@]2(C)[C@H]1C[C@H]1O[C@@H](c3ccc(Cc4ccc5c(c4)NCC5)cc3)O[C@]12C(=O)CO [Compound 004, (6aR,6bS,7S,8aS,8bS,10R,11aR,12aS,12bS)-7-hydroxy-8b-(2-hydroxyacetyl)-10-(4-(indolin-6-ylmethyl)phenyl)-6a,8a-dimethyl-6a,6b,7,8,8a,8b,11a,12,12a,12b-decahydro-1H-naphtho[2′,1′:4,5]indeno[1,2-d][1,3]dioxolan-4(2H)-one] | 7.5 |  | EC50 [1]: 42.5 nM
C[C@]12C=CC(=O)C=C1CC[C@@H]1[C@@H]2[C@@H](O)C[C@@]2(C)[C@H]1C[C@H]1O[C@@H](c3ccc(Cc4ccc5c(c4)OCCN5)cc3)O[C@]12C(=O)CO [Compound 005, (6aR,6bS,7S,8aS,8bS,10R,11aR,12aS,12bS)-10-(4-((3,4-dihydro-2H-benzo[b][1,4]oxazin-7-yl)methyl)phenyl)-7-hydroxy-8b-(2-hydroxyacetyl)-6a,8a-dimethyl-1,2,6a,6b,7,8,8a,8b,11a,12,12a,12b-decahydro-1H-naphtho[2′,1′:4,5]indeno[1,2-d][1,3]dioxolan-4(2H)-one] |  | 5.6 | 
C[C@]12C=CC(=O)C=C1[C@@H](F)C[C@H]1[C@@H]3C[C@H]4O[C@@H](c5ccc(Cc6ccc7c(c6)OCCN7)cc5)O[C@@]4(C(=O)CO)[C@@]3(C)C[C@H](O)[C@@]12F [Compound 006, (2S,6aS,6bR,7S,8aS,8bS,10R,11aR,12aS,12bS)-10-(4-((3,4-dihydro-2H-benzo[b][1,4]oxazin-7-yl)methyl)phenyl)-2,6b-difluoro-7-hydroxy-8b-(2-hydroxyacetyl)-6a,8a-dimethyl-6a,6b,7,8,8a,8b,11a,12,12a,12b-decahydro-1H-naphtho[2′,1′:4,5]indeno[1,2-d][1,3]dioxolan-4(2H)-one] | 1.7 |  | 
C[C@]12C=CC(=O)C=C1CC[C@@H]1[C@@H]2[C@@H](O)C[C@@]2(C)[C@H]1C[C@H]1O[C@@H](c3ccc(Cc4ccc(N)c5ncoc45)cc3)O[C@]12C(=O)CO [Compound 007, (6aR,6bS,7S,8aS,8bS,10R,11aR,12aS,12bS)-10-(4-((4-aminobenzo[d]oxazol-7-yl)methyl)phenyl)-7-hydroxy-8b-(2-hydroxyacetyl)-6a,8a-dimethyl-6a,6b,7,8,8a,8b,11a,12,12a,12b-decahydro-1H-naphtho[2′,1′:4,5]indeno[1,2d][1,3]dioxolan-4(2H)-one] | 2.1 |  | EC50 [1]: 17.1 nM
C[C@]12C=CC(=O)C=C1CC[C@@H]1[C@@H]2[C@@H](O)C[C@@]2(C)[C@H]1C[C@H]1O[C@@H](c3ccc(Cc4ccc(N)c5c4OCO5)cc3)O[C@]12C(=O)CO [Compound 008, (6aR,6bS,7S,8aS,8bS,10R,11 aR,12aS,12bS)-10-(4-((7-aminobenzo[d][1,3]dioxolan-4-yl)methyl)phenyl)-7-hydroxy-8b-(2-hydroxyacetyl)-6a,8a-dimethyl-6a,6b,7,8,8a,8b,11a,12,12a,12b-decahydro-1H-naphtho[2′,1′:4,5]indeno[1,2-d][1,3]dioxolan-4(2H)-one] |  | 7.81 | 
C[C@]12C=CC(=O)C=C1[C@@H](F)C[C@H]1[C@@H]3C[C@H]4O[C@@H](c5ccc(Cc6ccc(N)c7c6CCO7)cc5)O[C@@]4(C(=O)CO)[C@@]3(C)C[C@H](O)[C@@]12F [Compound 010, (2S,6aS,6bR,7S,8aS,8bS,10R,11aR,12aS,12bS)-10-(4-((7-amino-2,3-dihydrobenzofuran-4-yl)methyl)phenyl)-2,6b-difluoro-7-hydroxy-8b-(2-hydroxyacetyl)-6a,8a-dimethyl-6a,6b,7,8,8a,8b,11a,12,12a,12b-decahydro-1H-naphtho[2′,1′:4,5]indeno[1,2-d][1,3]dioxolan-4(2H)-one] | 1.07 |  | 
C[C@]12C=CC(=O)C=C1CC[C@@H]1[C@@H]2[C@@H](O)C[C@@]2(C)[C@H]1C[C@H]1O[C@@H](c3ccc(Cc4ccc(N)c5c4CCC5)cc3)O[C@]12C(=O)CO [Compound 011, (6aR,6bS,7S,8aS,8bS,10R,11aR,12aS,12bS)-10-(4-((7-amino-2,3-dihydro-1H-inden-4-yl)methyl)phenyl)-7-hydroxy-8b-(2-hydroxyacetyl)-6a,8a-dimethyl-6a,6b,7,8,8a,8b,11a,12,12a,12b-decahydro-1H-naphtho[2′,1′:4,5]indeno[1,2-d][1,3]dioxolan-4(2H)-one] |  | 4.25 | 
CC12C=CC(=O)C=C1CCC1C2C(O)CC2(C)C1CC1OC(c3ccc(Cc4cc(N)cc5c4CCO5)cc3)OC12C(=O)CO [Compound 012, (6aR,6bS,7S,8aS,8bS,10R,11aR,12aS,12bS)-10-(4-((6-amino-2,3-dihydrobenzofuran-4-yl)methyl)phenyl)-7-hydroxy-8b-(2-hydroxyacetyl)-6a,8a-dimethyl-6a,6b,7,8,8a,8b,11a,12,12a,12b-decahydro-1H-naphtho[2′,1′:4,5]indeno[1,2-d][1,3]dioxolan-4(2H)-one] |  | 9.58 | 
